By IC50 is commonly meant the point on the concentration scale where inhibition reaches its midpoint. Lower therefore signals higher potency.

Sequence of human C5a receptor (C5aR) (P21730 whole entry): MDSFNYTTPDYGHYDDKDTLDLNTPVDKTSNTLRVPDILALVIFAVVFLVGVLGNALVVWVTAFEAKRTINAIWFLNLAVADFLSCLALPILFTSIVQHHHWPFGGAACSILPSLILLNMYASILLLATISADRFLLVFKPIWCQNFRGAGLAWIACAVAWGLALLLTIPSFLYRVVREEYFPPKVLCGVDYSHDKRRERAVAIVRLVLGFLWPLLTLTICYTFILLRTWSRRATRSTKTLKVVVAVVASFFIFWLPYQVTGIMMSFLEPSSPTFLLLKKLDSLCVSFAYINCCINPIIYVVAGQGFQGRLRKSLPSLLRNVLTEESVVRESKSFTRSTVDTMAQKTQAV

This assay concerns the target human C5a receptor (C5aR) (Homo sapiens (Human), UniProt P21730). The experiment in a line: Inhibition of C5a-C5aR binding (biotinylated human C5a, U937/C5aR cells, FACS). The method, then:
U937 cells were originally obtained from the American Type Culture Collection (ATCC) and transfected with human C5a receptor (C5aR). U937/C5aR cells were cultured at 37° C., 5% CO2 in RPMI1640 (Gibco) supplemented with 10% FBS (Gibco) and 350 µg/ml Geneticin (Gibco) and passaged every 3 days to maintain the density range from […] to 2×10^6 cells/ml.
Human C5a biotinylation was performed according to the procedure provided by manufacturer (Thermo Scientific, A39257). 10 mM solution of Sulfo-NHS-LC-Biotin was prepared by adding 180μl ultrapure H2O to the 1 mg vial immediately. 12 μl 10 mM biotin reagent was added to […] human C5a solution, gently pipetted for 3 seconds, and incubated on ice for 2 hours. Amicon ultra-0.5 centrifuge filter device (Millipore, UFC5003BK) was pre-rinsed with Milli-Q H2O, centrifuged at 14000 g for 5 min immediately before use. Up to […] sample (diluted by PBS) was added to the device and capped. The device was spinned at 14000 g for approximately 5 min. 250 μl PBS was added to the filter device, spinned at 14000 g for 5 min, and repeatedly washed 6 times. The filter device was separated from the microcentrifuge tube and placed upside down in a clean microcentrifuge tube, spinned for 2 min at 1000 g to transfer the concentrated sample from the device to the tube.
U937/C5aR cells were collected and washed twice by PBS, cells were suspended in PBS+0.1% BSA buffer at the density of 3×10^6 cells/ml. 100 μl cell suspension was added to a 96 well microplate. 50 μl compound diluted in assay buffer and 50 μl biotinylated ligand human C5a (30 nM) were added to corresponding wells in order and the plate was incubated on ice for 120 min and then centrifuged at 1000 rpm for 3-5 min at 4° C. Supernatant was removed and cells were washed by pre-cold PBS twice. 100 μl FITC conjugated streptavidin was added to cells, incubated on ice for another 30 min, and then centrifuged at 1000 rpm for 3-5 min at 4° C. Supernatant was removed and cells were washed by pre-cold PBS twice. 150 μl PBS was added to suspend the cells and signals were detected by FACS (Beckman, Cytoflex).
`Cc1cccc(F)c1C(=O)N1C2COC[C@@H]2C[C@H](C(=O)Nc2ccc3c(cnn3C)c2)[C@@H]1c1ccc(NC2CCOCC2)cc1` (relative stereo) [Compound 134, cis-1-(2-fluoro-6-methylbenzoyl)-N-(1-methyl-1H-indazol-5-yl)-2-(4-((tetrahydro-2H-pyran-4-yl)amino)phenyl)octahydrofuro[3,4-b]pyridine-3-carboxamide] yielded an IC50 of 2000 to 5000 nM.
With `Cc1ccc(NC(=O)C2C[C@@H]3CCC[C@@H]3N(C(=O)c3c(C)cccc3F)C2c2ccc(NC3CCCC3)cc2)cc1C(F)(F)F` (relative stereo) [Compound 155, cis-2-(4-(cyclopentylamino)phenyl)-1-(2-fluoro-6-methylbenzoyl)-N-(4-methyl-3-(trifluoromethyl)phenyl)octahydro-1H-cyclopenta[b]pyridine-3-carboxamide] the figure was 500 to 2000 nM; with `Cc1ccc(NC(=O)C2CC(O)CN(C(=O)c3c(C)cccc3F)C2c2ccc(NC3CCCC3)cc2)cc1C(F)(F)F` (stereo not drawn) [Compound 42, 2-(4-(cyclopentylamino)phenyl)-1-(2-fluoro-6-methylbenzoyl)-5-hydroxy-N-(4-methyl-3-(trifluoromethyl)phenyl)piperidine-3-carboxamide], under 50 nM; with `Cc1cccc(F)c1C(=O)N1[C@@H]2CCC[C@@H]2C[C@H](C(=O)Nc2ccc3c(cnn3C3COC3)c2)[C@@H]1c1ccc(NC2CCCC2)cc1` [Compound 83, (2R,3S,4aR,7aR)-2-(4-(cyclopentylamino)phenyl)-1-(2-fluoro-6-methylbenzoyl)-N-(1-(oxetan-3-yl)-1H-indazol-5-yl)octahydro-1H-cyclopenta[b]pyridine-3-carboxamide], 2000 to 5000 nM.
`Cc1cccc(F)c1C(=O)N1[C@@H]2CCC[C@@H]2C[C@H](C(=O)Nc2ccc3[nH]ncc3c2)[C@@H]1c1ccc(NC2CCCC2)cc1` [Compound 84, (2R,3S,4aR,7aR)-2-(4-(cyclopentylamino)phenyl)-1-(2-fluoro-6-methylbenzoyl)-N-(1H-indazol-5-yl)octahydro-1H-cyclopenta[b]pyridine-3-carboxamide]: the IC50 is under 50 nM.
The compound `Cc1cccc(F)c1C(=O)N1[C@@H]2CCC[C@@H]2C[C@H](C(=O)Nc2ccc3c(cnn3Cc3ccccn3)c2)[C@@H]1c1ccc(NC2CCOCC2)cc1` [Compound 92, (2R,3S,4aR,7aR)-1-(2-fluoro-6-methylbenzoyl)-N-(1-(pyridin-2-ylmethyl)-1H-indazol-5-yl)-2-(4-((tetrahydro-2H-pyran-4-yl)amino)phenyl)octahydro-1H-cyclopenta[b]pyridine-3-carboxamide] gave an IC50 of 2000 to 5000 nM.
With `Cc1cccc(F)c1C(=O)N1[C@@H]2CCC[C@@H]2C[C@H](C(=O)Nc2ccc3ncccc3c2)[C@@H]1c1ccc(NC2CCOCC2)cc1` [Compound 95, (2R,3S,4aR,7aR)-1-(2-fluoro-6-methylbenzoyl)-N-(quinolin-6-yl)-2-(4-((tetrahydro-2H-pyran-4-yl)amino)phenyl)octahydro-1H-cyclopenta[b]pyridine-3-carboxamide] the figure was 500 to 2000 nM.
Under `Cc1cccc(F)c1C(=O)N1[C@@H]2CCC[C@@H]2C[C@H](C(=O)Nc2ccc3nn(C)cc3c2)[C@@H]1c1ccc(NC2CCOCC2)cc1` [Compound 97, (2R,3S,4aR,7aR)-1-(2-fluoro-6-methylbenzoyl)-N-(2-methyl-2H-indazol-5-yl)-2-(4-((tetrahydro-2H-pyran-4-yl)amino)phenyl)octahydro-1H-cyclopenta[b]pyridine-3-carboxamide] stands 500 to 2000 nM.
With `Cc1cccc(F)c1C(=O)N1[C@@H]2CCC[C@@H]2C[C@H](C(=O)Nc2ccc3c(cnn3C3COC3)c2)[C@@H]1c1ccc(NC2CCOCC2)cc1` [Compound 99, (2R,3S,4aR,7aR)-1-(2-fluoro-6-methylbenzoyl)-N-(1-(oxetan-3-yl)-1H-indazol-5-yl)-2-(4-((tetrahydro-2H-pyran-4-yl)amino)phenyl)octahydro-1H-cyclopenta[b]pyridine-3-carboxamide] the figure was 2000 to 5000 nM.

Values taken from patent publication US20240043439A1, “COMPOUNDS AS C5AR INHIBITORS” (Kira Pharmaceuticals (Suzhou) Ltd., priority 2020, published 2024).
